Results reported in PMC5513037, “Examining the influence of specificity ligands and ATP-competitive ligands on the overall effectiveness of bivalent kinase inhibitors” (Proteome Science, 2017).

What was measured:
Experiment in all cases: KAM-matrix competition in K562 lysate
Assay type in all cases: binding
JAK2 = target: T1, JAK2 (Homo sapiens, UniProt O60674)
T1 construct: endogenous in cells; host or cells: K562
Description: (§1) Supplement 12953_2017_125_MOESM1_ESM.zip/MS_Supp Info.xlsx, sheet "KAM" | column: 10 uM KAM; 1 uM KAM; 0.1 uM KAM; 0.01 uM KAM; 0.001 uM KAM; RB50

AURKA = target: T2, AURKA (Homo sapiens, UniProt O14965)
T2 construct: endogenous in cells; host or cells: K562
T2 sequence (O14965 1-403): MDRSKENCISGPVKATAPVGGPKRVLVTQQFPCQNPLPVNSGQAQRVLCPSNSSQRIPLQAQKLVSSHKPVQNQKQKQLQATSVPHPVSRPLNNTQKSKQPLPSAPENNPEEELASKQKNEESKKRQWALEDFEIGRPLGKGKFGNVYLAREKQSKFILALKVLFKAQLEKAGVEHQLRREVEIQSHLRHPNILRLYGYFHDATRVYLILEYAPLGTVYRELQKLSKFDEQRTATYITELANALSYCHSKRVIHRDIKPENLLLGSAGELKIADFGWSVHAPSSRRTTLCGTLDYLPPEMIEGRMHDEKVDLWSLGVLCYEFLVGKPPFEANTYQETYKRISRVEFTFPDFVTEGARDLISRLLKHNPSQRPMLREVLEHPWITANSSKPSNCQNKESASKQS
Description: as §1

PHKG1 = target: T3, PHKG1 (Homo sapiens, UniProt Q16816)
T3 construct: endogenous in cells; host or cells: K562
T3 sequence (Q16816 whole entry): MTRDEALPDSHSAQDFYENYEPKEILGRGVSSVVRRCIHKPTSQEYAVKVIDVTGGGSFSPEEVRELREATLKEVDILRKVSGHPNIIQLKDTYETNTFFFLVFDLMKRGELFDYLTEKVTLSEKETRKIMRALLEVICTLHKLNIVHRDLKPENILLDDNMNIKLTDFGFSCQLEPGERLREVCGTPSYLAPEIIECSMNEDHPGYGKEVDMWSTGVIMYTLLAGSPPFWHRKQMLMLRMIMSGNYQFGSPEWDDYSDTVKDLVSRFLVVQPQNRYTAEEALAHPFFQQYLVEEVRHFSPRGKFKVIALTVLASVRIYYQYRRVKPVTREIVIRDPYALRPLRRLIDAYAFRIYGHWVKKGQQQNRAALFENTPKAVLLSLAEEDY
Description: as §1

CDK14 = target: T4, CDK14 (Homo sapiens, UniProt O94921)
T4 construct: endogenous in cells; host or cells: K562
T4 sequence (O94921 whole entry): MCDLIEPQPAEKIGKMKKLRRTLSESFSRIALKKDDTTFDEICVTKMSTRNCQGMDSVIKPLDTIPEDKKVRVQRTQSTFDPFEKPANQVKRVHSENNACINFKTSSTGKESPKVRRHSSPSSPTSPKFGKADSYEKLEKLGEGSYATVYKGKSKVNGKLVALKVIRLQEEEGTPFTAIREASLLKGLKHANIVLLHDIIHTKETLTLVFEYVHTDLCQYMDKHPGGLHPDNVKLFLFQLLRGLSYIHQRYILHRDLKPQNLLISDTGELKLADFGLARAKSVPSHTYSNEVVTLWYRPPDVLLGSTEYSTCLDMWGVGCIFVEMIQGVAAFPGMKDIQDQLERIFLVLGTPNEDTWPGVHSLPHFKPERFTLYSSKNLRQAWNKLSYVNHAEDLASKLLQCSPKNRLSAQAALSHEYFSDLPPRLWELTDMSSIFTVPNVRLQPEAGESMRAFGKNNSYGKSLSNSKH
Description: as §1

IKBKE = target: T5, IKBKE (Homo sapiens, UniProt Q14164)
T5 construct: endogenous in cells; host or cells: K562 cells (lysate)
T5 sequence (Q14164 1-716): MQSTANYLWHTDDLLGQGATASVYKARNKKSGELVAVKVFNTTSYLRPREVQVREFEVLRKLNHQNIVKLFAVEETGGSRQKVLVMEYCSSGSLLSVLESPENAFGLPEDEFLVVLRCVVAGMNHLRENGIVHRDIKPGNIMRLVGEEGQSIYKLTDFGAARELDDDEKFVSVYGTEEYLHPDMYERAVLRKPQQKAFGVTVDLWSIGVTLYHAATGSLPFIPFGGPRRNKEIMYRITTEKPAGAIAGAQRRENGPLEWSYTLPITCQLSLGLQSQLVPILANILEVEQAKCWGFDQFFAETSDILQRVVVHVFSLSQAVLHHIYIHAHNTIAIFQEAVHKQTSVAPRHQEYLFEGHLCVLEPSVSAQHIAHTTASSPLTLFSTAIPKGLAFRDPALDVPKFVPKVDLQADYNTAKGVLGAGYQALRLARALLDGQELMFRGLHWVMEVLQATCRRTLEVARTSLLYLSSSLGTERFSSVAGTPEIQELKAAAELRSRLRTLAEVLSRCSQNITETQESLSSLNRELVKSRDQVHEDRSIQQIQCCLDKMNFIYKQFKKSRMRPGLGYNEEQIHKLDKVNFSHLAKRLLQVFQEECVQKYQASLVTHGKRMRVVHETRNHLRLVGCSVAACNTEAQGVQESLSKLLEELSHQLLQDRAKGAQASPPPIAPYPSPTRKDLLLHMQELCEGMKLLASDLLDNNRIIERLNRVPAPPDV
Description: as §1

STK3 = target: T6, STK3 (Homo sapiens, UniProt Q13188)
T6 construct: endogenous in cells; host or cells: K562 cell lysate
T6 sequence (Q13188 1-491): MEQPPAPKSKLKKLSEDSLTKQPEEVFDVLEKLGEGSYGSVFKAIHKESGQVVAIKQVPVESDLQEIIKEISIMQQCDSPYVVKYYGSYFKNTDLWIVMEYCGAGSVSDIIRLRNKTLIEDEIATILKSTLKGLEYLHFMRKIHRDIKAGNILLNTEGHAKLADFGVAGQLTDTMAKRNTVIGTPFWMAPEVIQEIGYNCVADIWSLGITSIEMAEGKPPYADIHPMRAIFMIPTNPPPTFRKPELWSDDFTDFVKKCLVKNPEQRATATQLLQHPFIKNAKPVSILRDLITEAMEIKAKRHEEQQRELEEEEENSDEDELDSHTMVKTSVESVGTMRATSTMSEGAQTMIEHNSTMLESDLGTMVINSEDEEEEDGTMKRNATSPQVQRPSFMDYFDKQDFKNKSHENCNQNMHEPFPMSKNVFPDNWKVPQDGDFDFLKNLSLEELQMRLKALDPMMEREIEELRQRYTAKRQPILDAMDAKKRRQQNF
Description: as §1

CSNK2A1 = target: T7, CSNK2A1 (Homo sapiens, UniProt P68400)
T7 construct: endogenous in cells; host or cells: K562
T7 sequence (P68400 whole entry): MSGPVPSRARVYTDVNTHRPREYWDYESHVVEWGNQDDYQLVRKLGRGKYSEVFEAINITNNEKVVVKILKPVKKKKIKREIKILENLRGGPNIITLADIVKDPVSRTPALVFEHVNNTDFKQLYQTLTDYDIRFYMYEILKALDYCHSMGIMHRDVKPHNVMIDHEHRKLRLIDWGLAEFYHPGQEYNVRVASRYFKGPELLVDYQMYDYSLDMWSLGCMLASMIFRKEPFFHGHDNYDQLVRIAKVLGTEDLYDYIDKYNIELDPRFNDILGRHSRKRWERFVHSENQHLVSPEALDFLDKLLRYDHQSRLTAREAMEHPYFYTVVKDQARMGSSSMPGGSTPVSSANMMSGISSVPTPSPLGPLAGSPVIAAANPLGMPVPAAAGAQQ
Description: as §1

RPS6KA4 = target: T8, RPS6KA4 (Homo sapiens, UniProt O75676)
T8 construct: endogenous in cells; host or cells: K562
T8 sequence (O75676 whole entry): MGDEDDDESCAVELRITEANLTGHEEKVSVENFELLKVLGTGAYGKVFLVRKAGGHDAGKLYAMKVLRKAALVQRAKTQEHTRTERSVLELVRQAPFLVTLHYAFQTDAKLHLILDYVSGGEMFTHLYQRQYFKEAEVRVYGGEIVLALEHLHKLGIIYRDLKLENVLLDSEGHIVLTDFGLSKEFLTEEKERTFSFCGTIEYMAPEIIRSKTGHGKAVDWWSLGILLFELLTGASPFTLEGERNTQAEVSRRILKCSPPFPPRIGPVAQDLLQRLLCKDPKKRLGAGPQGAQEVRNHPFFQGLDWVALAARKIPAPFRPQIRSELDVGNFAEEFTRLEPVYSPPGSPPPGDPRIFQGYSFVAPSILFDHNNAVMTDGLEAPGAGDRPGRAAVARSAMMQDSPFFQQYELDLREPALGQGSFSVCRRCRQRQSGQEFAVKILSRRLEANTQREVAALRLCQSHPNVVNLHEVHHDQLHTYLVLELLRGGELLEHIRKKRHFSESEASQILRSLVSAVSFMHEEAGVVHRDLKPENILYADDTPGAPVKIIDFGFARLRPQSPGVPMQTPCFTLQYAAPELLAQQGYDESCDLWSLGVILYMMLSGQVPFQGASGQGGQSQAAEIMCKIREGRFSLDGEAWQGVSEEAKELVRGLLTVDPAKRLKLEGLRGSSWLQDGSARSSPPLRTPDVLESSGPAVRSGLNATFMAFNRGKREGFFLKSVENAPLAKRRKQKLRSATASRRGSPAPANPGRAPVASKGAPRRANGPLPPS
Description: as §1

SYK = target: T9, SYK (Homo sapiens, UniProt P43405)
T9 construct: K562 cell pellets were thawed on ice and resuspended in cold Lysis buffer; endogenous in cells; host or cells: K562
Description: as §1

[1] = read-out: RB50 (the source's name)

T1 sequence (O60674 whole entry): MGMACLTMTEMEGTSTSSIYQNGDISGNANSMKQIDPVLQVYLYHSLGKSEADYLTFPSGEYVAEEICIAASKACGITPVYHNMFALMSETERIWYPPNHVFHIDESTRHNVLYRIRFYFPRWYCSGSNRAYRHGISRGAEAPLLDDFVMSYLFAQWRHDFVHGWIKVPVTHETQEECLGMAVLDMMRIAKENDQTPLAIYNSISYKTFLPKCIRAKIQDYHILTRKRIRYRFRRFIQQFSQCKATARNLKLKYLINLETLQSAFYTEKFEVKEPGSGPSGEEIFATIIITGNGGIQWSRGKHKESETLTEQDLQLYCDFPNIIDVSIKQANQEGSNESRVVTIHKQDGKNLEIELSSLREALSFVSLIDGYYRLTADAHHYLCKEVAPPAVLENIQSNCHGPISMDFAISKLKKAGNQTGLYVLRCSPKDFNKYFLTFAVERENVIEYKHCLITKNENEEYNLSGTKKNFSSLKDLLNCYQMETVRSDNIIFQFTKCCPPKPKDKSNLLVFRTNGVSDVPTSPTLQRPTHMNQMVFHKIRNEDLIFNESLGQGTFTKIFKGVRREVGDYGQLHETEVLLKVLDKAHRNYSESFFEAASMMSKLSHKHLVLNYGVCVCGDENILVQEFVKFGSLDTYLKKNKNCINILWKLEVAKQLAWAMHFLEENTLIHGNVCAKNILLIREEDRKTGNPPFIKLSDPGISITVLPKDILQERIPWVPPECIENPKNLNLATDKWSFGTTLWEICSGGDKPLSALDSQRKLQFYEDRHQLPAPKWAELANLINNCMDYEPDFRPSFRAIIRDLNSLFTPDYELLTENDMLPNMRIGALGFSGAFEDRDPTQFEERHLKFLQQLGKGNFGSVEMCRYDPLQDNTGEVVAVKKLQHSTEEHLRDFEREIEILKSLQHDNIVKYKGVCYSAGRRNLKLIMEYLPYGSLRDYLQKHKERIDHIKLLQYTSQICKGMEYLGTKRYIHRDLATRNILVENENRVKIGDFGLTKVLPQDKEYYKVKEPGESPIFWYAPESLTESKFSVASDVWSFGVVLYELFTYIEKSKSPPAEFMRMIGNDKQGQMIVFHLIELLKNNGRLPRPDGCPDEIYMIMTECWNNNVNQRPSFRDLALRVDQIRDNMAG

Compound: N#CCc1ccc(Nc2nc(NCCCN)cc(Nc3cc(C4CC4)[nH]n3)n2)cc1 [KAM]
- median Log10 fold change (JAK2; 0.001 uM KAM): -0.002638
- median Log10 fold change (JAK2; 0.01 uM KAM): -0.00181
- median Log10 fold change (JAK2; 0.1 uM KAM): -0.159
- median Log10 fold change (JAK2; 1 uM KAM): -0.3349
- median Log10 fold change (JAK2; 10 uM KAM): -0.4311
- IC50 (JAK2; [1]): 909 nM
- median Log10 fold change (AURKA; 0.001 uM KAM): 0.0112
- median Log10 fold change (AURKA; 0.01 uM KAM): -0.01229
- median Log10 fold change (AURKA; 0.1 uM KAM): -0.2365
- median Log10 fold change (AURKA; 1 uM KAM): -0.473
- median Log10 fold change (AURKA; 10 uM KAM): -0.552
- IC50 (AURKA; [1]): 257 nM
- median Log10 fold change (PHKG1; 0.001 uM KAM): -0.0673
- median Log10 fold change (PHKG1; 0.01 uM KAM): -0.04082
- median Log10 fold change (PHKG1; 0.1 uM KAM): -0.2109
- median Log10 fold change (PHKG1; 1 uM KAM): -0.4403
- median Log10 fold change (PHKG1; 10 uM KAM): -0.5431
- IC50 (PHKG1; [1]): 329 nM
- median Log10 fold change (CDK14; 0.001 uM KAM): 0.09538
- median Log10 fold change (CDK14; 0.01 uM KAM): 0.03255
- median Log10 fold change (CDK14; 0.1 uM KAM): -0.148
- median Log10 fold change (CDK14; 1 uM KAM): -0.2642
- median Log10 fold change (CDK14; 10 uM KAM): -0.4049
- IC50 (CDK14; [1]): 1660 nM
- median Log10 fold change (IKBKE; 0.001 uM KAM): -0.04139
- median Log10 fold change (IKBKE; 0.01 uM KAM): -0.01605
- median Log10 fold change (IKBKE; 0.1 uM KAM): -0.1319
- median Log10 fold change (IKBKE; 1 uM KAM): -0.3552
- median Log10 fold change (IKBKE; 10 uM KAM): -0.4826
- IC50 (IKBKE; [1]): 823 nM
- median Log10 fold change (STK3; 0.001 uM KAM): -0.01987
- median Log10 fold change (STK3; 0.01 uM KAM): -0.0374
- median Log10 fold change (STK3; 0.1 uM KAM): -0.2245
- median Log10 fold change (STK3; 1 uM KAM): -0.1979
- median Log10 fold change (STK3; 10 uM KAM): -0.3452
- IC50 (STK3; [1]): 3720 nM
- median Log10 fold change (CSNK2A1; 0.001 uM KAM): -0.001285
- median Log10 fold change (CSNK2A1; 0.01 uM KAM): -0.02001
- median Log10 fold change (CSNK2A1; 0.1 uM KAM): -0.3204
- median Log10 fold change (CSNK2A1; 1 uM KAM): -0.6577
- median Log10 fold change (CSNK2A1; 10 uM KAM): -0.7357
- IC50 (CSNK2A1; [1]): 117 nM
- median Log10 fold change (RPS6KA4; 0.001 uM KAM): 0.007656
- median Log10 fold change (RPS6KA4; 0.01 uM KAM): -0.02452
- median Log10 fold change (RPS6KA4; 0.1 uM KAM): -0.1561
- median Log10 fold change (RPS6KA4; 1 uM KAM): -0.4146
- median Log10 fold change (RPS6KA4; 10 uM KAM): -0.4828
- IC50 (RPS6KA4; [1]): 558 nM
- median Log10 fold change (SYK; 0.001 uM KAM): -0.04062
- median Log10 fold change (SYK; 0.01 uM KAM): -0.03667
- median Log10 fold change (SYK; 0.1 uM KAM): -0.2061
- median Log10 fold change (SYK; 1 uM KAM): -0.3555
- median Log10 fold change (SYK; 10 uM KAM): -0.3656
- IC50 (SYK; [1]): 714 nM
